Laboratory results from the supplement of paper PMC4862054.

Tests used:
Conditions in all cases: incubation time: 72 h
BT-474 [1] = experiment: normalised response (% of control), CellTiter-Glo; higher = more viable cells (100 = DMSO, 0 = benzethonium chloride kill control)
Procedure: (§1)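 DSRT, 72 h incubation, CellTox Green / CellTiter-Glo readout. Signal is normalised to DMSO and benzethonium chloride controls. Value is the normalised response at dose 3.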

CAL-51 [2] = experiment: as above
Procedure: as §1

DU-4475 [3] = experiment: as above
Procedure: as §1

MDA-MB-231 [4] = experiment: as above
Procedure: as §1

HCC1599 [5] = experiment: as above
Procedure: as §1

Hs578T [6] = experiment: as above
Procedure: as §1

HDQ-P1 [7] = experiment: as above
Procedure: as §1

MFM-223 [8] = experiment: as above
Procedure: as §1

BT-549 [9] = experiment: as above
Procedure: as §1

MDA-MB-468 [10] = experiment: as above
Procedure: as §1

CAL-120 [11] = experiment: as above
Procedure: as §1

CAL-85-1 [12] = experiment: as above
Procedure: as §1

SK-BR-3 = experiment: as above
Procedure: as §1

HCC1143 [13] = experiment: as above
Procedure: as §1

MCF-10A [14] = experiment: as above
Procedure: as §1

MDA-MB-453 [15] = experiment: as above
Procedure: as §1

MDA-MB-436 [16] = experiment: as above
Procedure: as §1

CAL-148 [17] = experiment: as above
Procedure: as §1

HCC1937 [18] = experiment: as above
Procedure: as §1

BT-474 [19] = experiment: normalised response (% of control), CellTox Green; higher = less cell death (100 = DMSO, 0 = benzethonium chloride kill control)
Summary of the method: (§2)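 Breast cancer cell lines (20 µl suspension) were seeded into 384-well plates holding compound at 5 concentrations in 10-fold steps over a compound-specific 10,000-fold range, then incubated 72 h. CellTox Green fluorescence (485/520 nm) was read first, then CellTiter-Glo luminescence after 10 min at room temperature. Each plate was normalised to 0.1 % DMSO (100) and a positive kill control (0). Each value is the normalised signal at a single concentration of the series.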

CAL-51 [20] = experiment: as above
Summary of the method: as §2

DU-4475 [21] = experiment: as above
Summary of the method: as §2

MDA-MB-231 [22] = experiment: as above
Summary of the method: as §2

HCC1599 [23] = experiment: as above
Summary of the method: as §2

Hs578T [24] = experiment: as above
Summary of the method: as §2

HDQ-P1 [25] = experiment: as above
Summary of the method: as §2

MFM-223 [26] = experiment: as above
Summary of the method: as §2

BT-549 [27] = experiment: as above
Summary of the method: as §2

MDA-MB-468 [28] = experiment: as above
Summary of the method: as §2

CAL-120 [29] = experiment: as above
Summary of the method: as §2

CAL-85-1 [30] = experiment: as above
Summary of the method: as §2

HCC1143 [31] = experiment: as above
Summary of the method: as §2

MCF-10A [32] = experiment: as above
Summary of the method: as §2

MDA-MB-453 [33] = experiment: as above
Summary of the method: as §2

MDA-MB-436 [34] = experiment: as above
Summary of the method: as §2

CAL-148 [35] = experiment: as above
Summary of the method: as §2

HCC1937 [36] = experiment: as above
Summary of the method: as §2

SMILES | normalised response (BT-474 [1]) [%] | normalised response (CAL-51 [2]) [%] | normalised response (DU-4475 [3]) [%] | normalised response (MDA-MB-231 [4]) [%] | normalised response (HCC1599 [5]) [%] | normalised response (Hs578T [6]) [%] | normalised response (HDQ-P1 [7]) [%] | normalised response (MFM-223 [8]) [%] | normalised response (BT-549 [9]) [%] | normalised response (MDA-MB-468 [10]) [%] | normalised response (CAL-120 [11]) [%] | normalised response (CAL-85-1 [12]) [%] | normalised response (SK-BR-3) [%] | normalised response (HCC1143 [13]) [%] | normalised response (MCF-10A [14]) [%] | normalised response (MDA-MB-453 [15]) [%] | normalised response (MDA-MB-436 [16]) [%] | normalised response (CAL-148 [17]) [%] | normalised response (HCC1937 [18]) [%] | normalised response (BT-474 [19]) [%] | normalised response (CAL-51 [20]) [%] | normalised response (DU-4475 [21]) [%] | normalised response (MDA-MB-231 [22]) [%] | normalised response (HCC1599 [23]) [%] | normalised response (Hs578T [24]) [%] | normalised response (HDQ-P1 [25]) [%] | normalised response (MFM-223 [26]) [%] | normalised response (BT-549 [27]) [%] | normalised response (MDA-MB-468 [28]) [%] | normalised response (CAL-120 [29]) [%] | normalised response (CAL-85-1 [30]) [%] | normalised response (HCC1143 [31]) [%] | normalised response (MCF-10A [32]) [%] | normalised response (MDA-MB-453 [33]) [%] | normalised response (MDA-MB-436 [34]) [%] | normalised response (CAL-148 [35]) [%] | normalised response (HCC1937 [36]) [%]
NC(=O)c1ccc(I)c([N+](=O)[O-])c1 [Iniparib] (100 nM) | 92 | 117 | 98.8 | 90.9 | 94 | 92.8 | 95 | 82.7 | 99 | 85.2 | 89.6 | 92 | 80.9 | 96.9 | 76.1 | 78.5 | 93 | 84.8 | 93.1 | 95.7 | 98.5 | 94.2 | 83 | 83.9 | 94.2 | 99.5 | 97.5 | 106 | 128 | 99.1 | 103 | 70.8 | 100 | 99.1 | 67.8 | 53.4 | 92.4
CCc1c2c(nc3ccc(OC(=O)N4CCC(N5CCCCC5)CC4)cc13)-c1cc3c(c(=O)n1C2)COC(=O)[C@]3(O)CC [Irinotecan] (100 nM) | 99.2 | 109 | 98.8 | 96.2 | 112 | 98 | 96.5 | 106 | 95.3 | 111 | 92.5 | 103 | 100 | 96 | 95.4 | 102 | 93.8 | 96.6 | 94.8 | 92.4 | 106 | 101 | 89.2 | 99.7 | 77.4 | 117 | 73.8 | 93.4 | 99.2 | 98.7 | 94.9 | 86 | 109 | 102 | 93.4 | 104 | 98
O=C(Nc1cccnc1)N1CCC(Cc2cccc(Oc3ccc(C(F)(F)F)cn3)c2)CC1 [PF-3845] (100 nM) | 103 | 106 | 102 | 115 | 85 | 103 | 96.7 | 110 | 104 | 107 | 102 | 104 | 112 | 107 | 112 | 113 | 103 | 113 | 103 | 104 | 110 | 107 | 121 | 113 | 87.9 | 105 | 102 | 99.9 | 107 | 104 | 97.5 | 121 | 107 | 104 | 107 | 103 | 110
Cc1[nH]c2ccccc2c1CCNCc1ccc(/C=C/C(=O)NO)cc1 [Panobinostat] (10 nM) | 94.3 | 73.7 | 84 | 88.4 | 94.8 | 88.1 | 93.3 | 90.8 | 99.7 | 84.6 | 85.3 | 77.1 | 65.8 | 88.5 | 99.6 | 50.6 | 83.5 | 83.1 | 81.5 | 75.8 | 99.8 | 95.4 | 86.3 | 96.4 | 106 | 102 | 94.9 | 106 | 70.6 | 99.7 | 89.9 | 76.1 | 110 | 81.9 | 82.3 | 83.1 | 99.2
COCC1(CO)C(=O)C2CCN1CC2 (stereo not given) [Prima-1 Met] (100 nM) | 96.8 | 99.6 | 96.1 | 97.5 | 119 | 101 | 103 | 107 | 106 | 95.8 | 99.3 | 99.7 | 98.7 | 103 | 107 | 104 | 101 | 112 | 102 | 101 | 108 | 101 | 104 | 114 | 104 | 109 | 108 | 102 | 145 | 102 | 95.6 | 83.2 | 82 | 102 | 86.5 | 106 | 122
